Data set [1] has as its target T1, aldose reductase, originating from the lens of cattle (Bos taurus, UniProt P16116).
T1 construct: originating from the lens of cattle, was employed after being subjected to a partial purification; from tissue; host or cells: lens of cattle, partially purified
The data set is described as follows: Enzyme reaction inhibiting activity (aldose reductase, NADPH / D,L-glyceraldehyde, absorbance at 340 nm). The class given is biochemical. The note with it: for inhibition at 0.1 µg: concentration of 0.1 γ, pH 6.0, 37° C. On the procedure:
The preparation of aldose reductase and the determination of its enzyme reaction inhibiting activity were carried out pursuant to the procedures disclosed by Haymann et al. in Journal of Biological Chemistry, 240, 877 (1965).
The sample solution to be examined for inhibiting activity was prepared by dissolving an amount of a compound of formula (I) according to the present invention in a small amount of methanol and increasing the volume of the resulting methanol solution by diluting it with distilled water up to tenfold volume. As the enzyme, i.e. aldose reductase, originating from the lens of cattle, was employed after being subjected to a partial purification.
To 2.4 ml of 5×10^-5 M NADPH solution dissolved in a 2/15 M phosphate buffer solution (pH 6.0), 0.4 ml of the enzyme solution and 0.1 ml of the sample solution to be examined were added and the mixture was charged in a quartz cell in a photoelectric photometer and was subjected to preincubation at 37° C. for 4 mins. Then, 0.1 ml of a 0.015 M D,L-glyceraldehyde solution was added thereto for initiating the enzyme reaction and the decrease in the photoabsorbance at 340 nm was measured at 37° C. for 4 mins. The aldose reductase inhibiting activity calculated by [formula] in which A represents the enzyme reaction rate with addition of the inhibitor and B denotes the enzyme reaction rate without addition of the inhibitor.

Data set [2] deals with sorbitol accumulation in lens. Put plainly: Activity for suppressing accumulation of sorbitol, tissue culture of lens. The class given is cell-based, Wistar rats. To be noted: for Inhibition of Sorbite Accumulat. in Lens: concentration of 2.5 γ, rat lens cultured 20 hours with added glucose. On the procedure:
(§1) Lenses and sciatic nerves excised from 7 weeks-old male Wistar rats were washed twice with an aseptic buffer solution consisting of 0.3% trisaminomethane, 0.8% NaCl, 0.038% KCl, 0.025% Na2 HPO4.12H2 O, 0.1% glucose and 1.85 ml/1 of concentrated HCl.
(§2) The lenses and the sciatic nerves were then treated by a 30 mins. preculture in a culture medium prepared by adding 2 ml of 7.5% conc. aseptic NaHCO3 solution and 5.5 ml of aseptic calf fetus serum to 100 ml of an aseptic culture medium of 0.98% TC Medium 199 (supplied from the firm NISSUI) containing 0.01% of dihydrostreptomycin and 0.01% of benzyl-penicillin. Thereafter, the intrinsic culture was effected in a culture medium prepared by adding each sample solution to be examined and 0.09% of glucose to the above-mentioned culture medium and permitting culturing to proceed for 20 hours. The culturing was effected at 37° C. in an atmosphere composed of 95% air and 5% CO2.
(§3) After culturing, the cultured samples of lens and sciatic nerve were removed from the culture medium to filter paper and the weight of each of them was measured after the adherent culture solution had been blown off. Then, each of the cultured samples was homogenized with the addition of 1 ml of a cold 8% HClO4 solution and the homogenized mixture was subjected to centrifugation at 10,000 G for 10 mins., whereby a supernatant was obtained. The resulting precipitate was then homogenized again with addition thereto of 0.5 ml of cold 8% HClO4 solution and the homogenized mixture was again subjected to centrifugation in a similar way as above to obtain a further supernatant. This was combined with the previously obtained supernatant and the resulting solution was neutralized with 2 N KOH aq. solution and was diluted with distilled water to a volume of 5 ml. The precipitate formed by neutralization was separated by centrifugation at 3,000 rpm for 10 mins. and the resulting supernatant was employed as the sample for determining the sorbitol content.
(§4) The determination of the sorbitol content in the lens and in the sciatic nerve was carried out in accordance with the technique of Bergmeyer in "Methods of Enzymatic Analysis" edited by H.U. Bergmeyer, pp 1323-1326, Academic Press, New York, 1974 and in accordance with the technique proposed by Malaon et al. in "Diabetes" 29, 861-864 (1980).
(§5) To 0.5 ml of the sample solution for determination of sorbitol content obtained as above, 0.9 ml of 0.1 M glycine-KOH buffer solution (pH 9.4) containing 1 mM of NAD^+ and 0.1 ml of a solution of sorbitol dehydrogenase of 20 units/ml were added and the resulting mixture was subjected to incubation at 37° C. for 1 hour.
(§6) The content of sorbitol in each tissue was estimated by assuming the increment of the photoabsorbance at 340 nm to be proportional to the amount of NADH produced by the reaction for the lens and by detecting the fluorescence with an excitation wavelength of 366 nm and a fluorescence wavelength of 425 nm for the sciatic nerve.
(§7) The activity for suppressing accumulation of sorbitol, i.e. the aldose reductase inhibiting activity, was calculated from the determined sorbitol content by the calculation formula [formula] in which A denotes the content of sorbitol per unit weight of the tissue after cultivation with addition of the inhibitor, B denotes the sorbitol content per unit weight of the tissue after cultivation without addition of the inhibitor and C represents the sorbitol content per unit weight of the tissue after cultivation in the medium without addition of glucose and inhibitor.

Data set [3] deals with sorbitol accumulation in sciatic nerve. Put plainly: Activity for suppressing accumulation of sorbitol, tissue culture of sciatic nerve. The format is cell-based, Wistar rats. To be noted: concentration of 1.0 γ; rat sciatic nerve cultured 20 hours with added glucose. On the procedure:
as §1, §2, §3, §4, §5, §6, §7

In another data set the test system is STD-DDY mice. Put plainly: Acute toxicity, oral. To be noted: orally 400 mg/20 ml/kg, dissolved with aqueous NaOH at pH 6.5-7.0, observed for 10 days. The class given is in vivo. On the procedure:
Compounds of formula (I) according to the present invention, as given in the examples below or 2,2'-dimethoxy-5, 5'-bis(3-carboxypropyl) biphenyl, were suspended in distilled water and were dissolved completely by adding at least the equimolar amount of aqueous NaOH solution. […] No fatality was marked in any of the administered groups.

Data on ten compounds can be found in US5155259A, “Aldose reductase inhibitor” (Toyo Jozo Kabushiki Kaisha, priority 1990, dated 1992).

Broadly, the inhibition is the change of the read-out against control, counted positive when it falls. A lower inhibition goes with a weak effect.

In data set [1], `CCOc1ccc(CCCC(=O)O)cc1-c1cc(CCCC(=O)O)ccc1OCC` [R=C2H5, n=3, 2,2'-diethoxy-5,5'-bis(3-carboxypropyl) biphenyl] yielded an inhibition at 0.1 µg of 77%. Moreover, the “Inhibition of Sorbite Accumulat. in Lens” value in data set [2] was determined as 76%. Besides, the “Inhibition of Sorbite Accum. in Sciatic N.” value (shortened to “Inhibition … in Sciatic N.”) in data set [3] was determined as 80%.

Turning to `CCCCCOc1ccc(CCCC(=O)O)cc1-c1cc(CCCC(=O)O)ccc1OCCCCC` [R=C5H11, n=3, 2,2'-dipentyloxy-5,5,'-bis(3-carboxypropyl) biphenyl], the inhibition at 0.1 µg in data set [1] came out at 48%.

Compound `COc1ccc(CCC(=O)O)cc1-c1cc(CCC(=O)O)ccc1OC` [R=CH3, n=2, 2,2'-dimethoxy-5,5'-bis(2-carboxyethyl) biphenyl] had an inhibition at 0.1 µg in data set [1] of 44%. The “Inhibition of Sorbite Accumulat. in Lens” value in data set [2] amounted to 76%. The “Inhibition … in Sciatic N.” value in data set [3] worked out at 85%.

Compound `O=C(O)CCCc1ccc(OCC2CCCCC2)c(-c2cc(CCCC(=O)O)ccc2OCC2CCCCC2)c1` [2,2'-dicyclohexylmethoxy-5,5'-bis(3-carboxypropyl) biphenyl] displayed an inhibition at 0.1 µg in data set [1] of 45%. Also, the “Inhibition of Sorbite Accumulat. in Lens” value in data set [2] was found to be 57%.

`CCOc1ccc(CCC(=O)O)cc1-c1cc(CCC(=O)O)ccc1OCC` [R=C2H5, n=2, 2,2'-diethoxy-5,5'-bis(2-carboxyethyl) biphenyl] returned an inhibition at 0.1 µg in data set [1] of 43%. Besides, the “Inhibition of Sorbite Accumulat. in Lens” value in data set [2] came out at 56%. In data set [3], the “Inhibition … in Sciatic N.” value was found to be 69%.

As for `O=C(O)CCc1ccc(OCC2CCCCC2)c(-c2cc(CCC(=O)O)ccc2OCC2CCCCC2)c1` [2,2'-dicyclohexylmethoxy-5,5'-bis(2-carboxyethyl) biphenyl], the inhibition at 0.1 µg in data set [1] amounted to 44%. Besides, the “Inhibition of Sorbite Accumulat. in Lens” value in data set [2] was found to be 51%.

The compound `CCCOc1ccc(CCCC(=O)O)cc1-c1cc(CCCC(=O)O)ccc1OCCC` [R=C3H7, n=3, 2,2'-dipropoxy-5,5'-bis(3-carboxypropyl) biphenyl] registered an inhibition at 0.1 µg in data set [1] of 57%. The “Inhibition of Sorbite Accumulat. in Lens” value in data set [2] was found to be 68%. Besides, the “Inhibition … in Sciatic N.” value in data set [3] is 67%.

`COc1ccc(CCCC(=O)O)cc1-c1cc(CCCC(=O)O)ccc1OC` [R=CH3, n=3, 2,2'-dimethoxy-5,5'-bis (3-carboxypropyl) biphenyl]: in data set [1], the inhibition at 0.1 µg came to 63%. The “Inhibition of Sorbite Accumulat. in Lens” value in data set [2] stood at 85%. Further, the “Inhibition … in Sciatic N.” value in data set [3] came to 92%. For the same compound, the “fatality (acute toxicity)” value with STD-DDY mice was “No fatality”.

In the case of `CCCOc1ccc(CCC(=O)O)cc1-c1cc(CCC(=O)O)ccc1OCCC` [R=C3H7, n=2, 2,2'-dipropoxy-5,5'-bis(2-carboxyethyl) biphenyl], in data set [1], the inhibition at 0.1 µg is 35%. In data set [2], the “Inhibition of Sorbite Accumulat. in Lens” value amounted to 66%. The “Inhibition … in Sciatic N.” value in data set [3] was found to be 67%.

In the case of “2,2'-dimethoxy-5, 5'-bis(3-carboxypropyl) biphenyl diester”, the “aldose reductase inhibiting activity (in words)” value in data set [1] (tests according to 1) and 2), concentration not given) is listed as “did not exhibit any aldose reductase inhibiting activity”. Further, the “activity for suppressing accumulation of sorbitol (in words)” value in data set [2] (tissue and concentration not stated) is “no activity for suppressing accumulation of sorbitol”.
